Results as given in patent US20250230193A1, “CYCLIC COMPOUND HAVING SELECTIVE KRAS INHIBITORY EFFECT ON HRAS AND NRAS” (CHUGAI SEIYAKU KABUSHIKI KAISHA, priority 2022, published 2025).
*1 amine or outer side, *2 acyl side, *3 side chain or, on linkers, in order; H or OH if unused. Where a SMILES comes first, the peptide text is derived from it. Bridges are numbered along the chain shown (N, C = ends). [ ]: non-standard residue; d: D form. The star is where a group is joined. hPhe(3,5-F2-4-CF3) = N[C@@H](CCc1cc(F)c(C(F)(F)F)c(F)c1)C(=O)O; NPrPhe(4-CF3) = CCCN[C@@H](Cc1ccc(C(F)(F)F)cc1)C(=O)O; NMeGly(cPent) = CN[C@H](C(=O)O)C1CCCC1; X13 = CCC[C@](C)(N[*:1])C(=O)[*:2]; αMeCha = C[C@](N)(CC1CCCCC1)C(=O)O; NMeD = CN[C@@H](CC(=O)O)C(=O)O; NMeL = CN[C@@H](CC(C)C)C(=O)O; αMeL = CC(C)C[C@](C)(N)C(=O)O; αMeV = CC(C)[C@](C)(N)C(=O)O; αMeS = C[C@](N)(CO)C(=O)O; Morpholide = C1CN(*)CCO1; Aze = O=C(O)[C@@H]1CCN1; Sar = CNCC(=O)O; Allyl = C=CC*

Experiments:
[1] = target: GDP-bound NRAS wild-type protein (Homo sapiens, UniProt P01111); assay: Binding to NRAS by surface plasmon resonance (SPR), Single Cycle Kinetics; conditions: KD ratio NRAS/KRAS, SPR
GDP-bound NRAS wild-type protein, sequence (P01111 whole entry): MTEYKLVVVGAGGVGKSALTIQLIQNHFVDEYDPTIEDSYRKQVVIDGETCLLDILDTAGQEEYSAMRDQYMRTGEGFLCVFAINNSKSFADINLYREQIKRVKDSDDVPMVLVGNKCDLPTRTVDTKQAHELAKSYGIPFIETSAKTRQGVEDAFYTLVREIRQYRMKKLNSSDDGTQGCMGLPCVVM

[2] = target: GDP-bound HRAS wild-type protein (Homo sapiens, UniProt P01112); assay: Binding to HRAS by surface plasmon resonance (SPR), Single Cycle Kinetics; conditions: KD ratio HRAS/KRAS, SPR
GDP-bound HRAS wild-type protein, sequence (P01112 whole entry): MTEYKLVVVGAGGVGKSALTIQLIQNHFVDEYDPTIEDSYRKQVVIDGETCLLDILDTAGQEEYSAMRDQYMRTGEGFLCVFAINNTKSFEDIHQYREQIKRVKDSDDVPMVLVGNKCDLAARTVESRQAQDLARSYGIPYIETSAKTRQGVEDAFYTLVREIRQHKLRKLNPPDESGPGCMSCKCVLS

| SMILES | NRAS/KRAS (ratio of KD value with respect to GDP-bound NRAS wild-type protein to KD value with respect to KRAS) [1] | HRAS/KRAS (ratio of KD value with respect to GDP-bound HRAS wild-type protein to KD value with respect to KRAS) [2] |
| --- | --- | --- |
| CCCN1C(=O)[C@@H]2CCN2C(=O)CN(C)C(=O)[C@H]([C@@H](C)CC)NC(=O)[C@H](CC(C)C)N(C)C(=O)C[C@@H](C(=O)N2CCOCC2)N(C)C(=O)[C@H](C2CCCC2)N(C)C(=O)[C@](C)(C(C)C)NC(=O)[C@@H]2CCCN2C(=O)[C@H](CCc2cc(F)c(C(F)(F)F)c(F)c2)NC(=O)CN(C)C(=O)[C@@H]1Cc1ccc(C(F)(F)F)cc1 [PP0792] ([NMeL]I[Sar][Aze][NPrPhe(4-CF3)][Sar][hPhe(3,5-F2-4-CF3)]P[αMeV][NMeGly(cPent)][NMeD]-Morpholide; lactam N-11) | C (A compound having a KD ratio of 0.1 or more and less than 3 is denoted as C) | B (a compound having 3 or more and less than 10 is denoted as B) |
| CCCN1C(=O)[C@@H]2CCN2C(=O)CN(C)C(=O)[C@H]([C@@H](C)CC)NC(=O)[C@H](CC(C)C)N(C)C(=O)C[C@@H](C(=O)N2CCOCC2)N(C)C(=O)[C@H](C2CCCC2)N(C)C(=O)[C@](C)(CCC)NC(=O)[C@@H]2CCCN2C(=O)[C@H](CCc2cc(F)c(C(F)(F)F)c(F)c2)NC(=O)CN(C)C(=O)[C@@H]1Cc1ccc(C(F)(F)F)cc1 [PP0794] ([NMeL]I[Sar][Aze][NPrPhe(4-CF3)][Sar][hPhe(3,5-F2-4-CF3)]P[X13][NMeGly(cPent)][NMeD]-Morpholide; lactam N-11) | C (A compound having a KD ratio of 0.1 or more and less than 3 is denoted as C) | B (a compound having 3 or more and less than 10 is denoted as B) |
| CCCN1C(=O)[C@@H]2CCN2C(=O)CN(C)C(=O)[C@H]([C@@H](C)CC)NC(=O)[C@H](CC(C)C)N(C)C(=O)C[C@@H](C(=O)N2CCOCC2)N(C)C(=O)[C@H](C2CCCC2)N(C)C(=O)[C@](C)(CC(C)C)NC(=O)[C@@H]2CCCN2C(=O)[C@H](CCc2cc(F)c(C(F)(F)F)c(F)c2)NC(=O)CN(C)C(=O)[C@@H]1Cc1ccc(C(F)(F)F)cc1 [PP0795] ([NMeL]I[Sar][Aze][NPrPhe(4-CF3)][Sar][hPhe(3,5-F2-4-CF3)]P[αMeL][NMeGly(cPent)][NMeD]-Morpholide; lactam N-11) | C (A compound having a KD ratio of 0.1 or more and less than 3 is denoted as C) | B (a compound having 3 or more and less than 10 is denoted as B) |
| CCCN1C(=O)[C@@H]2CCN2C(=O)CN(C)C(=O)[C@H]([C@@H](C)CC)NC(=O)[C@H](CC(C)C)N(C)C(=O)C[C@@H](C(=O)N2CCOCC2)N(C)C(=O)[C@H](C2CCCC2)N(C)C(=O)[C@](C)(CC2CCCCC2)NC(=O)[C@@H]2CCCN2C(=O)[C@H](CCc2cc(F)c(C(F)(F)F)c(F)c2)NC(=O)CN(C)C(=O)[C@@H]1Cc1ccc(C(F)(F)F)cc1 [PP0796] ([NMeL]I[Sar][Aze][NPrPhe(4-CF3)][Sar][hPhe(3,5-F2-4-CF3)]P[αMeCha][NMeGly(cPent)][NMeD]-Morpholide; lactam N-11) | C (A compound having a KD ratio of 0.1 or more and less than 3 is denoted as C) | B (a compound having 3 or more and less than 10 is denoted as B) |
| CCCN1C(=O)[C@@H]2CCN2C(=O)CN(C)C(=O)[C@H]([C@@H](C)CC)NC(=O)[C@H](CC(C)C)N(C)C(=O)C[C@@H](C(=O)N2CCOCC2)N(C)C(=O)[C@H](C2CCCC2)N(C)C(=O)[C@](C)(COC)NC(=O)[C@@H]2CCCN2C(=O)[C@H](CCc2cc(F)c(C(F)(F)F)c(F)c2)NC(=O)CN(C)C(=O)[C@@H]1Cc1ccc(C(F)(F)F)cc1 [PP0798] ([NMeL]I[Sar][Aze][NPrPhe(4-CF3)][Sar][hPhe(3,5-F2-4-CF3)]P[αMeS](Me)[NMeGly(cPent)][NMeD]-Morpholide; lactam N-11) | C (A compound having a KD ratio of 0.1 or more and less than 3 is denoted as C) | B (a compound having 3 or more and less than 10 is denoted as B) |
| C=CCOC[C@]1(C)NC(=O)[C@@H]2CCCN2C(=O)[C@H](CCc2cc(F)c(C(F)(F)F)c(F)c2)NC(=O)CN(C)C(=O)[C@H](Cc2ccc(C(F)(F)F)cc2)N(CCC)C(=O)[C@@H]2CCN2C(=O)CN(C)C(=O)[C@H]([C@@H](C)CC)NC(=O)[C@H](CC(C)C)N(C)C(=O)C[C@@H](C(=O)N2CCOCC2)N(C)C(=O)[C@H](C2CCCC2)N(C)C1=O [PP0799] ([NMeL]I[Sar][Aze][NPrPhe(4-CF3)][Sar][hPhe(3,5-F2-4-CF3)]P[αMeS](Allyl)[NMeGly(cPent)][NMeD]-Morpholide; lactam N-11) | C (A compound having a KD ratio of 0.1 or more and less than 3 is denoted as C) | B (a compound having 3 or more and less than 10 is denoted as B) |
